Results on 6 compounds are retold here after patent US20250026778A1 (TIUMBIO CO., LTD., priority 2021, published 2025).

One assay deals with T1, his-galectin-3 (Homo sapiens, UniProt P17931).
T1 construct: purchased Abcam
T1 sequence (P17931 whole entry): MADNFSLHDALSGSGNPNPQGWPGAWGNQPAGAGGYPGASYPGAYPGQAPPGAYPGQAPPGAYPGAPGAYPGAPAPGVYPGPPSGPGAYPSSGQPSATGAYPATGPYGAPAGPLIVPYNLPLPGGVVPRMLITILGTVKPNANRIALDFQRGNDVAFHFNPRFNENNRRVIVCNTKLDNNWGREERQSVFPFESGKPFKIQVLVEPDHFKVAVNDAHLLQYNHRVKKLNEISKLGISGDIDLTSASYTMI
Briefly: TR-FRET assay (in vitro galectin-3 binding inhibitory activity test). As to conditions: Table 1; compound at 20 μM; 60 nM his-galectin-3, 15 nM biotin-ASF; read-out: % Inhibitory activity (at 20 μM). The gist of the method: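 Compound is premixed with his-galectin-3 (60 nM final), then biotin-ASF (15 nM), Tb anti-His antibody (2 nM) and streptavidin-d2 (20 nM) are added. After at least 3.5 hours at RT in HEPES/NaCl buffer with Tween 20 and BSA, TR-FRET is read at 615/665 nm. DMSO serves as the uninhibited control, ASF omission as background.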
In general terms: In TR-FRET formats the signal depends on donor and acceptor labels being close together.
Take `O=C1CCCC2(O[C@H](CO)[C@H](O)[C@H](n3cc(-c4cc(F)c(F)c(F)c4)nn3)[C@H]2O)N1CC1CCS(=O)(=O)CC1` (stereo partly drawn) [Compound A95, (2R,3R,4S,5R)-7-((1,1-dioxidotetrahydro-2H-thiopyran-4-yl)methyl)-3,5-dihydroxy-2-(hydroxymethyl)-4-(4-(3,4,5-trifluorophenyl)-1H-1,2,3-triazol-1-yl)-1-oxa-7-azaspiro[5.5]undecan-8-one]: the inhibition at 20 µM is below 25%.

For `O=C(c1ccccc1)N1CCC[C@]2(C1)O[C@H](CO)[C@H](O)[C@H](n1cc(-c3cc(F)c(F)c(F)c3)nn1)[C@H]2O` [Compound A138, ((2R,3R,4S,5R,6R)-3,5-dihydroxy-2-(hydroxymethyl)-4-(4-(3,4,5-trifluorophenyl)-1H-1,2,3-triazol-1-yl)-1-oxa-8-azaspiro[5.5]undecan-8-yl)(phenyl)methanone], the inhibition at 20 µM was below 25%.

Take `OC[C@H]1O[C@@]2(CCCCO2)[C@H](OCc2ccccc2O)[C@@H](n2cc(-c3cc(F)c(F)c(F)c3)nn2)[C@H]1O` [Compound A47, (2R,3R,4S,5R,6S)-5-((2-hydroxybenzyl)oxy)-2-(hydroxymethyl)-4-(4-(3,4,5-trifluorophenyl)-1H-1,2,3-triazol-1-yl)-1,7-dioxaspiro[5.5]undecan-3-ol]: the inhibition at 20 µM is 25 to 50%.

Consider `COc1cccc(CC(=O)N2CCC[C@]3(C2)O[C@H](CO)[C@H](O)[C@H](n2cc(-c4cc(F)c(F)c(F)c4)nn2)[C@H]3O)c1` [Compound A140, 1-((2R,3R,4S,5R,6R)-3,5-dihydroxy-2-(hydroxymethyl)-4-(4-(3,4,5-trifluorophenyl)-1H-1,2,3-triazol-1-yl)-1-oxa-8-azaspiro[5.5]undecan-8-yl)-2-(3-methoxyphenyl)ethanone], for which the inhibition at 20 µM was below 25%.

As to `OC[C@H]1O[C@@]2(CCCO2)[C@H](OCc2cccc(C(F)(F)F)c2)[C@@H](n2cc(-c3cc(F)c(F)c(F)c3)nn2)[C@H]1O` [Compound A90, (5S,7R,8R,9S,10R)-7-(hydroxymethyl)-10-((3-(trifluoromethyl)benzyl)oxy)-9-(4-(3,4,5-trifluorophenyl)-1H-1,2,3-triazol-1-yl)-1,6-dioxaspiro[4.5]decan-8-ol], the inhibition at 20 µM is below 25%.

The same assay, now with this note: Table 2; compound at 20 μM; 60 nM his-galectin-3, 15 nM biotin-ASF; read-out: % Inhibitory activity (at 20 μM).
In the case of `O=C(N[C@@H]1CCO[C@]12O[C@H](CO)[C@H](O)[C@H](n1cc(-c3cc(F)c(F)c(F)c3)nn1)[C@H]2O)c1cc(=O)[nH]c2ccccc12` [Compound A254, N-((4R,5S,7R,8R,9S,10R)-8,10-dihydroxy-7-(hydroxymethyl)-9-(4-(3,4,5-trifluorophenyl)-1H-1,2,3-triazol-1-yl)-1,6-dioxaspiro[4.5]decan-4-yl)-2-oxo-1,2-dihydroquinoline-4-carboxamide], the inhibition at 20 µM was 50 to 75%.
